This is an account of results in ChEMBL document CHEMBL4339186, “Repurposing nitrocatechols: 5-Nitro-α-cyanocarboxamide derivatives of caffeic acid and caffeic acid phenethyl ester effectively inhibit aggregation of tau-derived hexapeptide AcPHF6” (Eur J Med Chem, 2019).

For orientation: inhibition means how much of the control response was suppressed.

Each structure is given as a SMILES string. Activity calls are given as the source filed them. The calls are words filed in the database; no cut-off is given here.

A short description of test [1]: Inhibition of synthetic AcPHF6 peptide aggregation in pH 7.4 phosphate buffer assessed as reduction in fluorescence intensity at 50 uM and measured every minute over 2 hrs with 5 secs shaking prior to each reading by ThT fluorescence assay.
Test [2] can be described thus: Metal chelating activity assessed as Cu2+-compound complex formation at 40 uM after 30 mins by UV-Visible spectrophotometric method.
A short description of test [3]: Metal chelating activity assessed as Fe2+-compound complex formation at 40 uM after 30 mins by UV-Visible spectrophotometric method.
The nature of test [4]: Metal chelating activity assessed as Cu2+-compound complex formation at 40 uM incubated with 0-100 uM copper(II) sulfate after 30 mins by UV-Visible spectrophotometric method.

As to `O=C(/C=C/c1cc(O)c(O)c([N+](=O)[O-])c1)OCc1ccccc1`, in test [1], the inhibition amounted to 44.5%. For the same compound, the result in test [2] was Active. Moreover, in test [3], the outcome was inactive. As for `CCN(CC)C(=O)/C(C#N)=C/c1cc(O)c(O)c([N+](=O)[O-])c1`, the inhibition in test [1] stood at 60.3%. On the same count and under the same terms, with `Cc1ccc(C(=O)c2cc(O)c(O)c([N+](=O)[O-])c2)cc1` the figure was 64.6%; with `CCOC(=O)C(=Cc1ccc(O)cc1)C(=O)OCC`, “inactive”; with `O=C(O)/C=C/c1cc(O)c(O)c(Br)c1`, 18%. Still for that read-out and setting: under `O=C(O)c1cc(O)c(O)c(O)c1` stands “inactive”; under `CCOC(=O)C(=Cc1cc(O)c(O)c([N+](=O)[O-])c1)C(=O)OCC`, 41%. On the same count and under the same terms, under `CCOC(=O)/C=C/c1ccc(O)cc1` stands “inactive”; under `O=C(O)/C=C/c1ccc(O)cc1`, “inactive”.

Regarding `O=C(O)/C=C/c1cc(O)c(O)c([N+](=O)[O-])c1`, the inhibition in test [1] stood at 45%. On to `O=C(/C=C/c1ccc(O)c(O)c1)OCc1ccccc1`, for which the inhibition in test [1] was 13%. On the same count and under the same terms, under `CCOC(=O)C(=Cc1cc(O)c(O)c(O)c1)C(=O)OCC` stands “inactive”; under `O=S(=O)(O)c1cc(S(=O)(=O)O)c2c(/N=N/c3ccccc3)c(O)ccc2c1`, 54%; under `O=C(O)/C=C/c1ccc(O)c(O)c1`, “inactive”. Consider `N#C/C(=C\c1cc(O)c(O)c([N+](=O)[O-])c1)C(=O)NCc1ccccc1`, for which, in test [1], the inhibition turned out to be 90.5%. Also, the outcome in test [2] was Active. In addition, in test [3], the outcome was inactive. The like results for `N#C/C(=C\c1cc(O)c(O)c([N+](=O)[O-])c1)C(=O)OCc1ccccc1` were, in that order, 71.2%, “Active” and “inactive”. With `CCOC(=O)/C=C/c1cc(O)c(O)c(O)c1`, the inhibition in test [1] turned out to be 21%. As to `O=C(/C=C/c1ccc(O)c(O)c1)NCCc1ccccc1`, in test [1], the inhibition entry is “inactive”. Still for that read-out and setting: under `CCOC(=O)C(=Cc1ccc(O)c(O)c1)C(=O)OCC` stands “inactive”. Turning to `O=C(/C=C/c1cc(O)c(O)c([N+](=O)[O-])c1)OCCc1ccccc1`, the inhibition in test [1] turned out to be 55.2%. For the same compound, the outcome in test [2] was Active. For the same compound, in test [3], the result was inactive.

As to `N#C/C(=C\c1cc(O)c(O)c([N+](=O)[O-])c1)C(=O)OCCc1ccccc1`, the inhibition in test [1] worked out at 74.4%. Moreover, the result in test [2] was Active. Also, the result in test [3] was inactive. For `O=C(/C=C/c1ccc(O)c(O)c1)OCCc1ccccc1`, in test [1], the inhibition was 17%. `CCOC(=O)/C=C/c1ccc(O)c(O)c1`: the inhibition result in test [1] is “inactive”. Still for that read-out and setting: under `O=C(O)/C=C/c1cc(O)c(O)c(O)c1` stands “inactive”. Consider `N#C/C(=C\c1cc(O)c(O)c([N+](=O)[O-])c1)C(=O)NCCc1ccccc1`, for which the inhibition in test [1] worked out at 89.2%. For the same compound, the result in test [2] and in test [4] was Active. In test [3], the result was inactive.

For `O=C(O)C(=Cc1cc(O)c(O)c([N+](=O)[O-])c1)C(=O)O`, the inhibition result in test [1] is “inactive”. Same read-out and setting: under `CCOC(=O)/C=C/c1cc(O)c(O)c([N+](=O)[O-])c1` stands 44%.

With `O=C(O)c1ccc(O)c(O)c1`, the inhibition result in test [1] is “inactive”.
